From the supplement of paper PMC10307832

Columns and labels:
Assay in all cases: relative viability (nuclei count vs DMSO), 5 days (fraction); higher = more cells survive
[1] = compound: C1/C(=C\C2=CC=CS2)/C(=O)/C(=C/C3=CC=CS3)/C1 + Nc1nc2[nH]cc(CCc3ccc(C(=O)N[C@@H](CCC(=O)O)C(=O)O)cc3)c2c(=O)[nH]1 [Pemetrexed] (partner 0.2 µM)
In short: (§1)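 Values are medians from duplicate plates. Each reflects relative viability, defined as the nuclei count of treated wells over that of vehicle wells. Lung cancer cell lines in 1536-well plates were pin-tool dosed one day after seeding with one drug alone or with a fixed anchor-drug dose plus five library-drug doses (not always all listed) in √10 steps, then fixed, stained and imaged at 4× after 5 days.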

[2] = compound: C[C@]12O[C@H](C[C@]1(O)CO)n1c3ccccc3c3c4c(c5c6ccccc6n2c5c31)CNC4=O [Lestaurtinib] + CCNC(=O)c1noc(-c2cc(C(C)C)c(O)cc2O)c1-c1ccc(CN2CCOCC2)cc1 [Luminespib] (partner 0.01 µM)
In short: as §1

[3] = compound: C1=CC(=CC=C1C2=CC(=C(S2)NC(=O)N)C(=O)N)F [TPCA-1] + CCNC(=O)c1noc(-c2cc(C(C)C)c(O)cc2O)c1-c1ccc(CN2CCOCC2)cc1 [Luminespib] (partner 0.01 µM)
In short: as §1

[4] = compound: C1=CC(=CC=C1C2=CC(=C(S2)NC(=O)N)C(=O)N)F [TPCA-1] + CC(C)C[C@H](NC(=O)[C@H](Cc1ccccc1)NC(=O)c1cnccn1)B(O)O [Bortezomib] (partner 0.002 µM)
In short: as §1

Cell Line	relative viability ([1]; first compound 0.2 µM)	relative viability ([1]; first compound 0.6325 µM)	relative viability ([1]; first compound 2 µM)	relative viability ([1]; first compound 6.325 µM)	relative viability ([1]; first compound 20 µM)	relative viability ([2]; first compound 0.005 µM)	relative viability ([2]; first compound 0.01581 µM)	relative viability ([2]; first compound 0.05 µM)	relative viability ([2]; first compound 0.1581 µM)	relative viability ([2]; first compound 0.5 µM)	relative viability ([3]; first compound 0.04 µM)	relative viability ([3]; first compound 0.1265 µM)	relative viability ([3]; first compound 0.4 µM)	relative viability ([3]; first compound 1.265 µM)	relative viability ([3]; first compound 4 µM)	relative viability ([4]; first compound 0.04 µM)	relative viability ([4]; first compound 0.1265 µM)	relative viability ([4]; first compound 0.4 µM)	relative viability ([4]; first compound 1.265 µM)	relative viability ([4]; first compound 4 µM)
BEN	0.82	0.781	1.03	0.662	0.657	0.249	0.298	0.278	0.326	0.213	0.329	0.358	0.405	0.492	0.191	1.17	0.53	0.805	0.999	0.587
CAL-12T	1.28	1.25	1.24	1.16	1.07	0.484	0.52	0.556	0.256	0.06	0.462	0.351	0.196	0.294	0.194	1.07	0.941	1.03	0.767	0.607
COR-L23	0.2	0.193	0.196	0.182	0.199	0.558	0.756	0.226	0.288	0.164	0.682	0.602	0.762	0.625	0.381	1.27	0.854	0.983	0.937	0.751
COR-L 105	1.37	1.04	1.26	1.06	1.13	0.843	0.826	0.532	0.67	0.263	0.782	0.658	0.766	0.738	0.648	0.846	0.808	0.982	0.516	0.333
ChaGo-K-1	0.259	0.26	0.278	0.224	0.25	0.62	0.706	0.698	0.479	0.223	0.766	0.689	0.698	0.453	0.302	0.83	0.995	1.11	0.903	0.377
EKVX	0.394	0.347	0.453	–	0.389	0.951	0.876	0.999	0.821	0.541	0.885	0.845	0.933	0.756	0.809	0.952	0.896	1.19	0.955	0.601
EMC-BAC-2	0.449	0.467	0.443	0.391	0.447	1.15	1.33	0.806	0.434	0.323	1.24	1.13	1.16	1.35	1.13	1.12	1.07	1.11	1.08	0.932
EPLC-272H	0.351	0.468	0.334	0.301	0.373	0.196	0.235	0.184	0.241	0.133	0.265	0.262	0.443	0.38	0.207	0.96	0.974	0.962	0.87	0.821
H3255	0.573	0.594	0.61	0.528	0.602	0.766	0.94	0.835	0.716	0.486	0.696	0.893	0.836	0.822	0.622	0.872	0.758	0.701	0.595	0.691
HARA	0.249	0.254	0.228	0.222	0.241	0.682	0.847	0.681	0.872	0.0984	0.791	0.754	0.864	0.83	0.382	1.08	1.13	1.14	1.03	1.07
HCC-15	0.221	0.203	0.218	0.214	0.217	0.365	0.552	0.341	0.294	0.157	0.458	0.326	0.341	0.366	0.374	1.21	0.944	1.06	1.01	0.817
HCC-44	0.64	0.688	0.613	0.55	0.673	1.14	1.22	0.623	0.873	0.308	0.958	1.03	1.02	–	0.983	0.903	0.789	0.908	0.745	0.883
HCC-827	0.262	0.226	0.243	0.248	0.284	0.332	0.505	0.344	0.289	0.33	0.675	0.496	0.531	0.598	0.201	1.06	1.06	1.09	0.964	0.89
HOP-62	0.307	0.316	0.248	0.243	0.342	0.9	1.07	0.855	0.913	0.274	0.98	0.924	0.93	0.893	0.812	0.641	0.707	0.832	0.738	0.57
LC-2-ad	0.272	0.298	0.268	0.25	0.287	1.1	1.21	0.799	0.617	0.372	1.13	1.01	0.826	0.908	0.663	1.11	1.01	0.94	1.04	0.371
LCLC-97TM1	0.175	0.178	0.167	0.165	0.187	0.71	0.678	0.363	0.62	0.233	0.877	0.614	0.71	0.541	0.482	0.654	0.654	0.608	0.475	0.0995

Cell Line	relative viability ([1]; first compound 0.2 µM)	relative viability ([1]; first compound 0.6325 µM)	relative viability ([1]; first compound 2 µM)	relative viability ([1]; first compound 6.325 µM)	relative viability ([1]; first compound 20 µM)	relative viability ([2]; first compound 0.005 µM)	relative viability ([2]; first compound 0.01581 µM)	relative viability ([2]; first compound 0.05 µM)	relative viability ([2]; first compound 0.1581 µM)	relative viability ([2]; first compound 0.5 µM)	relative viability ([3]; first compound 0.04 µM)	relative viability ([3]; first compound 0.1265 µM)	relative viability ([3]; first compound 0.4 µM)	relative viability ([3]; first compound 1.265 µM)	relative viability ([3]; first compound 4 µM)	relative viability ([4]; first compound 0.04 µM)	relative viability ([4]; first compound 0.1265 µM)	relative viability ([4]; first compound 0.4 µM)	relative viability ([4]; first compound 1.265 µM)	relative viability ([4]; first compound 4 µM)
LCLC-103H	0.477	0.444	0.447	0.433	0.47	1.04	1.08	0.767	0.501	0.34	0.97	0.99	0.852	0.965	0.752	1.07	1.05	1.1	0.987	1.02
LOU-NH91	0.331	0.401	0.316	0.37	0.375	0.341	0.262	0.254	0.301	0.224	0.346	0.254	0.397	0.255	0.318	0.508	0.514	0.502	0.523	0.574
LU99A	0.217	0.185	0.172	0.17	0.164	0.235	0.245	0.221	0.249	0.185	0.34	0.302	0.241	0.349	0.231	1.32	1.13	1.01	0.971	0.48
LXF-289	0.911	0.839	0.889	0.858	0.852	0.833	0.746	0.421	0.33	0.293	0.787	0.649	0.748	0.703	0.596	1.03	0.941	0.987	1.01	0.781
NCI-H23	0.781	0.641	0.859	0.453	0.71	0.241	0.217	0.242	0.184	0.188	0.199	0.208	0.219	0.196	0.193	1.12	0.935	0.909	1.11	0.512
NCI-H322M	0.628	0.642	0.681	0.503	0.626	0.773	0.713	0.449	0.337	0.329	1	0.812	0.984	1.01	0.366	1.18	1.17	1.36	1.24	1.27
NCI-H441	0.273	0.261	0.264	0.27	0.264	0.375	0.277	0.329	0.399	0.409	0.448	0.414	0.386	0.297	0.19	0.63	0.32	0.42	0.266	0.404
NCI-H460	0.0622	0.0731	0.0616	0.0608	0.0583	0.0333	0.0274	0.0352	0.0238	0.0199	0.0339	0.0348	0.0261	0.0343	0.0263	1.11	0.877	1.09	0.839	0.493
NCI-H520	0.644	0.623	0.727	–	0.65	0.226	0.202	0.234	0.217	0.244	0.197	0.215	0.203	0.246	0.213	0.82	0.607	0.717	0.453	0.252
NCI-H596	0.5	0.477	0.527	0.526	0.505	0.959	1.12	1.03	1.27	0.953	0.988	1.08	0.897	1.11	1.08	1.07	0.976	1.07	–	0.976
NCI-H647	0.19	0.158	0.204	0.158	0.213	0.153	0.115	0.12	0.0972	0.0647	0.149	0.192	0.157	0.102	0.134	1.26	0.809	0.954	0.751	0.418
NCI-H650	0.813	1.02	0.948	0.941	0.858	0.824	0.703	0.635	0.322	0.239	0.858	0.788	0.849	0.499	0.328	0.877	0.898	0.923	0.326	0.554
NCI-H661	0.914	1.01	0.949	0.806	0.959	0.895	0.88	0.853	0.729	0.363	0.973	0.934	0.962	0.846	0.806	0.651	0.662	0.986	0.753	0.501
NCI-H838	0.249	0.256	0.261	0.212	0.242	0.321	0.321	0.284	0.227	0.197	0.349	0.398	0.235	0.268	0.223	1.2	0.594	0.876	0.35	0.739
NCI-H1355	1.06	0.922	1	0.96	0.971	0.646	0.625	0.455	0.493	0.261	0.788	0.747	0.841	0.715	0.465	1.25	1.09	1.15	1.01	0.984
NCI-H1437	0.286	0.362	0.353	0.252	0.311	1.21	1.26	1.06	1.16	0.962	1.04	1.14	1.03	1.12	1.2	0.586	0.496	0.577	0.367	0.504
